Measured values reported in publication PMC7265341, “Quantifying CDK inhibitor selectivity in live cells” (Nature Communications, 2020).
Like-named read-outs stand apart in the source and are kept apart here.

Columns and labels:
CDK6/Cyclin D1 = CDK6/Cyclin D1 (Homo sapiens, UniProt Q00534); test: NanoBRET live-cell target engagement, NanoLuc-CDK6/Cyclin D1 in HEK-293; assay type: binding; details: for IC50: read-out: CDK6/D1 IC50
CDK1/Cyclin E1 = CDK1/Cyclin E1 (Homo sapiens, UniProt P06493); test: NanoBRET live-cell target engagement, CDK1-NanoLuc/Cyclin E1 in HEK-293; assay type: binding; details: for inhibition at 10 µM: read-out: CDK1/E1 Inhibition at 10µM (%)
Sequence of CDK1/Cyclin E1 (P06493 whole entry): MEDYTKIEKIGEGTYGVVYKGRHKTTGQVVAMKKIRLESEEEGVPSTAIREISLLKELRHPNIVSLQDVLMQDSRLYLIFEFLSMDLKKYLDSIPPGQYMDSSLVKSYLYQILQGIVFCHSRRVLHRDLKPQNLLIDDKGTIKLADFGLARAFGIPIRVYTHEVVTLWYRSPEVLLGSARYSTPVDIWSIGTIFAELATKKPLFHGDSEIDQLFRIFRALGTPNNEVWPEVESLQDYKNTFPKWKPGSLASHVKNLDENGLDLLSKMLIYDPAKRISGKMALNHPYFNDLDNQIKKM
Sequence of CDK1/Cyclin E1 (P24864 whole entry partner): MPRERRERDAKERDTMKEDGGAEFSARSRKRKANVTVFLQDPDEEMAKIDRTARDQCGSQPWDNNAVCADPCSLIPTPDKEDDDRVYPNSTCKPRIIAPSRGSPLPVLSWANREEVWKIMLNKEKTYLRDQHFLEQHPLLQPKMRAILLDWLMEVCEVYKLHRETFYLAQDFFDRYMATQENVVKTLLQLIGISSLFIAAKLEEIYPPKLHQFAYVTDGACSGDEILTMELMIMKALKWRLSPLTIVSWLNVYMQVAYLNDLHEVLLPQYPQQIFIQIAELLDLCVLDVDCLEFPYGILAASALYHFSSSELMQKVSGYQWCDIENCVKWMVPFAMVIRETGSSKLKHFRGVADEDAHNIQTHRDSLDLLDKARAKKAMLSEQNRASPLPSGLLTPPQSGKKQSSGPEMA

CDK19/Cyclin C = CDK19/Cyclin C (Homo sapiens, UniProt Q9BWU1); test: NanoBRET live-cell target engagement, NanoLuc-CDK19/Cyclin C in HEK-293; details: read-out: CDK19/C Inhibition at 10µM (%), 10µM
Sequence of CDK19/Cyclin C (Q9BWU1 whole entry): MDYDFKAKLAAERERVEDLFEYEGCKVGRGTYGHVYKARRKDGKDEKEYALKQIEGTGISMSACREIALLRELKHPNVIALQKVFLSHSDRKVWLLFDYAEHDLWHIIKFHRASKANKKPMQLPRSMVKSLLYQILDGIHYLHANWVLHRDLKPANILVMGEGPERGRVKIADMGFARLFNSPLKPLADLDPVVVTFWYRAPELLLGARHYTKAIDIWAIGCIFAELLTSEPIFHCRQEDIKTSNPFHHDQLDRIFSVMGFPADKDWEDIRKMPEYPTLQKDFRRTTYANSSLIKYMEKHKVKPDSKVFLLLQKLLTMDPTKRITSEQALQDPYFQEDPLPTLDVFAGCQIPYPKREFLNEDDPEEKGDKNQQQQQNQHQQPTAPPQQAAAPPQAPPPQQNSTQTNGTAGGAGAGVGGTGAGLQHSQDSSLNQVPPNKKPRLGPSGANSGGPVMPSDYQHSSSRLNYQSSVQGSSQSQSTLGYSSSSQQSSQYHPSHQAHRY
Sequence of CDK19/Cyclin C (P24863 whole entry partner): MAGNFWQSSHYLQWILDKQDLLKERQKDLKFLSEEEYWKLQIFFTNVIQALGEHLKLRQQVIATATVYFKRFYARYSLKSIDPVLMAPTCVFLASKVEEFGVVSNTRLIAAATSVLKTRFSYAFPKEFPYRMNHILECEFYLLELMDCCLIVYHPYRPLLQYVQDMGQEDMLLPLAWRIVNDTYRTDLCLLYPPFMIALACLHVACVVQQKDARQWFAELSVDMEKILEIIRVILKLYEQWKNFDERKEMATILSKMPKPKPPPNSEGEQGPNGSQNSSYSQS

CDK20/Cyclin H = CDK20/Cyclin H (Homo sapiens, UniProt Q8IZL9); test: NanoBRET live-cell target engagement, NanoLuc-CDK20/Cyclin H in HEK-293; assay type: binding; details: 10µM, read-out: CDK20/H Inhibition at 10µM (%)
CDK12/Cyclin K = CDK12/Cyclin K (Homo sapiens, UniProt Q9NYV4); test: NanoBRET live-cell target engagement, CDK12-NanoLuc/Cyclin K in HEK-293; assay type: binding; details: for inhibition at 10 µM: read-out: CDK12/K Inhibition at 10µM (%); for IC50: read-out: CDK12/K IC50
CDK9/Cyclin K = CDK9/Cyclin K (Homo sapiens, UniProt P50750); test: NanoBRET live-cell target engagement, NanoLuc-CDK9/Cyclin K in HEK-293; assay type: binding; details: 10µM, read-out: CDK9/K Inhibition at 10µM (%)
Sequence of CDK9/Cyclin K (P50750 whole entry): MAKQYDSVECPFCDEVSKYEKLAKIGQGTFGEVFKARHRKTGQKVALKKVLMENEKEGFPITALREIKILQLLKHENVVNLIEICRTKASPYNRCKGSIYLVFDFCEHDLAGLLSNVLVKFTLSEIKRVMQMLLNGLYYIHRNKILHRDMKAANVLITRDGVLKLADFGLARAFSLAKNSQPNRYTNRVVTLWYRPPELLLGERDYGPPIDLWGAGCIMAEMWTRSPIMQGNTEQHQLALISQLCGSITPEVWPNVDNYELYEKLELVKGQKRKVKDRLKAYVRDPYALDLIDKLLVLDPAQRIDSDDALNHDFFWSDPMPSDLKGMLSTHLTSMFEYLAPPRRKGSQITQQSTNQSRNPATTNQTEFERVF
Sequence of CDK9/Cyclin K (O75909 whole entry partner): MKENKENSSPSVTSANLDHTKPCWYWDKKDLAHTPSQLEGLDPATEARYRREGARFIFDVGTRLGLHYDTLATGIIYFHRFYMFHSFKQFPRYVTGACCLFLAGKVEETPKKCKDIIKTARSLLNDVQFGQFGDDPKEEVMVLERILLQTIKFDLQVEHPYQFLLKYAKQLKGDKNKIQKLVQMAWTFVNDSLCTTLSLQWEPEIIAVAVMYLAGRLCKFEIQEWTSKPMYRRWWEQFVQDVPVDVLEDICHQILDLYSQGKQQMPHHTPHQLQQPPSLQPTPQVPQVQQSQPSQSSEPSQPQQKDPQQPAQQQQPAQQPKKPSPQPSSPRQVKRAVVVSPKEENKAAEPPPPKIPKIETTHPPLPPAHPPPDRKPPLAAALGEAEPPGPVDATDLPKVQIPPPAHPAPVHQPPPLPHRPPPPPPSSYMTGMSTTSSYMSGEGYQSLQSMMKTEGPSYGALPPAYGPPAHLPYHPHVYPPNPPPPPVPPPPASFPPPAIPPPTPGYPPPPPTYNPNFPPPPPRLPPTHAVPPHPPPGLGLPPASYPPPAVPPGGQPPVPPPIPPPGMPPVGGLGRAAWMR

CDK15/Cyclin Y = CDK15/Cyclin Y (Homo sapiens, UniProt Q96Q40); test: NanoBRET live-cell target engagement, NanoLuc-CDK15/Cyclin Y in HEK-293; assay type: binding; details: for inhibition at 10 µM: read-out: CDK15/Y Inhibition at 10µM (%); for IC50: read-out: CDK15/Y IC50
Sequence of CDK15/Cyclin Y (Q96Q40 whole entry): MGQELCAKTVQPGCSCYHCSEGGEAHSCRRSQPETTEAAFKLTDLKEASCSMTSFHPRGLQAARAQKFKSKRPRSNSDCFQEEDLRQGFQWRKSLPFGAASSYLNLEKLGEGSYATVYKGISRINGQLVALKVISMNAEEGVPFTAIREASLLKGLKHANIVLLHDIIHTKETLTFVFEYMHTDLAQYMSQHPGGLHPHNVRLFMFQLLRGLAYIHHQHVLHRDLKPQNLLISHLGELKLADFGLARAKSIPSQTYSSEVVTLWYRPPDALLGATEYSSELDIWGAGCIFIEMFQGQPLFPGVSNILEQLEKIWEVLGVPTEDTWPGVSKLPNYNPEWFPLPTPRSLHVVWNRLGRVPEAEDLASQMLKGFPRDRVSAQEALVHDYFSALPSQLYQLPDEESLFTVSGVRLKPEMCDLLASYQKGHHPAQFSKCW
Sequence of CDK15/Cyclin Y (Q8ND76 whole entry partner): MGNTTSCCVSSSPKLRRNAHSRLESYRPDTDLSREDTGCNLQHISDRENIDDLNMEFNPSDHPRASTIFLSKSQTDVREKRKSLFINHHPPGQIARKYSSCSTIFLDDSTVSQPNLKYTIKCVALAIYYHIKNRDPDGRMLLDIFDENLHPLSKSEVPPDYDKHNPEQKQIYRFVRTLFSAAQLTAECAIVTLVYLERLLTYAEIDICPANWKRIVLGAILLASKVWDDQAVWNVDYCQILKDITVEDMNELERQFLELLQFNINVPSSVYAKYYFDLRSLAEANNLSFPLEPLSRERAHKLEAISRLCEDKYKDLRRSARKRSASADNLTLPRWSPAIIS

CDK5/CDK5R1 = CDK5/CDK5R1 (Homo sapiens, UniProt Q00535); test: NanoBRET live-cell target engagement, CDK5-NanoLuc/CDK5R1 in HEK-293; assay type: binding; details: for inhibition at 10 µM: read-out: CDK5/CDK5R1 Inhibition at 10µM (%)
CDK14/Cyclin Y = CDK14/Cyclin Y (Homo sapiens, UniProt O94921); test: NanoBRET live-cell target engagement, CDK14-NanoLuc/Cyclin Y in HEK-293; assay type: binding; details: for inhibition at 10 µM: read-out: CDK14/Y Inhibition at 10µM (%)
Sequence of CDK14/Cyclin Y (O94921 whole entry): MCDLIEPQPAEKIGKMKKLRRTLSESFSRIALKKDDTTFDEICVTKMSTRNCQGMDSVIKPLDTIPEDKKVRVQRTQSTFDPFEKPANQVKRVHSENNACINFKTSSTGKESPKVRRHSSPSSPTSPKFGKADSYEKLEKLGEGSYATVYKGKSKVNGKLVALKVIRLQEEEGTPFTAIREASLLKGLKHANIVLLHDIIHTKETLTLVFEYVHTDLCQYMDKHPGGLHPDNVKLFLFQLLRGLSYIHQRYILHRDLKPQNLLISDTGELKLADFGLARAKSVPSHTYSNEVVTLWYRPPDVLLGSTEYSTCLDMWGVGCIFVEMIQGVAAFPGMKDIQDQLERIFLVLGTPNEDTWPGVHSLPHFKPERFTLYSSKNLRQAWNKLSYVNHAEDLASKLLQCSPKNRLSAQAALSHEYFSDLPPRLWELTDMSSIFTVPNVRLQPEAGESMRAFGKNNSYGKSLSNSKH
Sequence of CDK14/Cyclin Y (Q8ND76 whole entry partner): as the sequence (Q8ND76 whole entry partner) above

CDK18/Cyclin Y = CDK18/Cyclin Y (Homo sapiens, UniProt Q07002); test: NanoBRET live-cell target engagement, CDK18-NanoLuc/Cyclin Y in HEK-293; assay type: binding; details: for inhibition at 10 µM: read-out: CDK18/Y Inhibition at 10µM (%); for IC50: read-out: CDK18/Y IC50
Sequence of CDK18/Cyclin Y (Q07002 whole entry): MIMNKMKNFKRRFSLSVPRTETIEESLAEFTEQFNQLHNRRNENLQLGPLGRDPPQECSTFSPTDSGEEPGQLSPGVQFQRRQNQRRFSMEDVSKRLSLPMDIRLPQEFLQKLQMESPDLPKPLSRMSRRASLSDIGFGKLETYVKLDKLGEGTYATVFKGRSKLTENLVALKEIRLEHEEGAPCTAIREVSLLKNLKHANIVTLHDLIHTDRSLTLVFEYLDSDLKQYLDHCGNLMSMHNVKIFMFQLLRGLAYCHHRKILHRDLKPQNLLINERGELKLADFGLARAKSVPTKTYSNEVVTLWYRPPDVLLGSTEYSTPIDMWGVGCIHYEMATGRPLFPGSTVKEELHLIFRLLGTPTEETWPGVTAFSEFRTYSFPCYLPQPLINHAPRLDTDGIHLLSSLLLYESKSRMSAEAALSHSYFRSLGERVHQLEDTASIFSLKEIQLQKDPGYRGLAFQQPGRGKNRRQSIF
Sequence of CDK18/Cyclin Y (Q8ND76 whole entry partner): as the sequence (Q8ND76 whole entry partner) above

Sequence of CDK6/Cyclin D1 (Q00534 whole entry): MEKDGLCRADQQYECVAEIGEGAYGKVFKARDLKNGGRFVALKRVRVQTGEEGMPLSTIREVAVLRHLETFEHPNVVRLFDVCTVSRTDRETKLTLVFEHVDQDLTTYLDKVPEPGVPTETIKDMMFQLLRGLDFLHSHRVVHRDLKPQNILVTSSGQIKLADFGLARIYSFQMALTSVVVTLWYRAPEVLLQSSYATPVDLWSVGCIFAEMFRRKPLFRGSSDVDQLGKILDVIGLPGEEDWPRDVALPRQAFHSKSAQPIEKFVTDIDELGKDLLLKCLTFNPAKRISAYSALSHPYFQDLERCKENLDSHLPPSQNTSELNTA
Sequence of CDK6/Cyclin D1 (P24385 whole entry partner): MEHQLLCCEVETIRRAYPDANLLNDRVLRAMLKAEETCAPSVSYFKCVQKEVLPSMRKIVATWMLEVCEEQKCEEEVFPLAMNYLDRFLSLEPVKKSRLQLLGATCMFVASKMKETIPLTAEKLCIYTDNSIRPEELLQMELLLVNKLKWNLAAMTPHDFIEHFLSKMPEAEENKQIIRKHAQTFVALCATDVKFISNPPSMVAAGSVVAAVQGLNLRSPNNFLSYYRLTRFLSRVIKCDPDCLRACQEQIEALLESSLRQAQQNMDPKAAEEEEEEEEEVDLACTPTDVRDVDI

With `CN1C/C=C/CCOc2cccc(c2)-c2ccnc(n2)Nc2cccc(c2)C1` [SB1317] as the compound, how does the inhibition at 10 µM (CDK6/Cyclin D1; 10µM, independent experiment 2, read-out: CDK6/D1 Inhibition at 10µM (%)) read?
The inhibition at 10 µM was 99.2%.

And the IC50 (CDK6/Cyclin D1; average (± SEM where n=3))?
Its IC50 is 270 nM.

What about the IC50 (CDK6/Cyclin D1; independent experiment 1) of the same compound?
Its IC50 is 290 nM.

What about the IC50 (CDK6/Cyclin D1; independent experiment 2) of the same compound?
The IC50 was 250 nM.

What about the inhibition at 10 µM (CDK1/Cyclin E1; average of experiments) of the same compound?
Its inhibition at 10 µM is 95.4%.

And the inhibition at 10 µM (CDK1/Cyclin E1; independent experiment 1)?
The inhibition at 10 µM was 95%.

And the inhibition at 10 µM (CDK1/Cyclin E1; independent experiment 2)?
Its inhibition at 10 µM is 95.8%.

And the IC50 (CDK1/Cyclin E1; average (± SEM where n=3), read-out: CDK1/E1 IC50)?
Its IC50 is 200 nM.

And the IC50 (CDK1/Cyclin E1; independent experiment 1, read-out: CDK1/E1 IC50)?
Its IC50 is 200 nM.

And the IC50 (CDK1/Cyclin E1; independent experiment 2, read-out: CDK1/E1 IC50)?
Its IC50 is 210 nM.

What about the IC50 (CDK1/Cyclin E1; live HEK-293, 2 h, mean ± S.E.M. (n=3) or mean (n=2), read-out: IC50 for CDK/cyclin complexes, CDK1/E1) of the same compound?
The IC50 was 200 nM.

What about the inhibition at 10 µM (CDK19/Cyclin C; average of experiments) of the same compound?
The inhibition at 10 µM was 74.8%.

And the inhibition at 10 µM (CDK19/Cyclin C; independent experiment 1)?
The inhibition at 10 µM was 62.1%.

And the inhibition at 10 µM (CDK19/Cyclin C; independent experiment 2)?
The inhibition at 10 µM was 87.4%.

What about the inhibition at 10 µM (CDK20/Cyclin H; independent experiment 1) of the same compound?
The inhibition at 10 µM was 79.2%.

And the inhibition at 10 µM (CDK20/Cyclin H; independent experiment 2)?
Its inhibition at 10 µM is 82.8%.

What about the inhibition at 10 µM (CDK12/Cyclin K; average of experiments) of the same compound?
Its inhibition at 10 µM is 60.9%.

What about the inhibition at 10 µM (CDK12/Cyclin K; independent experiment 1) of the same compound?
Its inhibition at 10 µM is 45.8%.

What about the inhibition at 10 µM (CDK12/Cyclin K; independent experiment 2) of the same compound?
The inhibition at 10 µM was 76%.

And the IC50 (CDK12/Cyclin K; average (n=2))?
Its IC50 is 680 nM.

What about the IC50 (CDK12/Cyclin K; independent experiment 1) of the same compound?
Its IC50 is 610 nM.

And the IC50 (CDK12/Cyclin K; independent experiment 2)?
The IC50 was 750 nM.

And the inhibition at 10 µM (CDK9/Cyclin K; average of experiments)?
The inhibition at 10 µM was 99.7%.

What about the inhibition at 10 µM (CDK9/Cyclin K; independent experiment 1) of the same compound?
Its inhibition at 10 µM is 100%.

What about the inhibition at 10 µM (CDK9/Cyclin K; independent experiment 2) of the same compound?
The inhibition at 10 µM was 99.2%.

And the inhibition at 10 µM (CDK15/Cyclin Y; average of experiments)?
The inhibition at 10 µM was 98.1%.

What about the inhibition at 10 µM (CDK15/Cyclin Y; independent experiment 1) of the same compound?
Its inhibition at 10 µM is 97.4%.

What about the inhibition at 10 µM (CDK15/Cyclin Y; independent experiment 2) of the same compound?
The inhibition at 10 µM was 98.7%.

What about the IC50 (CDK15/Cyclin Y; average (± SEM where n=3)) of the same compound?
The IC50 was 58 nM.

What about the IC50 (CDK15/Cyclin Y; independent experiment 1) of the same compound?
The IC50 was 55 nM.

What about the IC50 (CDK15/Cyclin Y; independent experiment 2) of the same compound?
The IC50 was 61 nM.

And the inhibition at 10 µM (CDK5/CDK5R1; average of experiments)?
The inhibition at 10 µM was 93.3%.

What about the inhibition at 10 µM (CDK5/CDK5R1; independent experiment 1) of the same compound?
The inhibition at 10 µM was 88.5%.

What about the inhibition at 10 µM (CDK5/CDK5R1; independent experiment 2) of the same compound?
The inhibition at 10 µM was 98.1%.

What about the IC50 (CDK5/CDK5R1; average (± SEM where n=3), read-out: CDK5/CDK5R1 IC50) of the same compound?
Its IC50 is 180 nM.

And the IC50 (CDK5/CDK5R1; independent experiment 1, read-out: CDK5/CDK5R1 IC50)?
Its IC50 is 190 nM.

And the IC50 (CDK5/CDK5R1; independent experiment 2, read-out: CDK5/CDK5R1 IC50)?
Its IC50 is 180 nM.

And the IC50 (CDK5/CDK5R1; live HEK-293, 2 h, mean ± S.E.M. (n=3) or mean (n=2), read-out: IC50 for CDK/cyclin complexes, CDK5/R1)?
Its IC50 is 180 nM.

What about the inhibition at 10 µM (CDK14/Cyclin Y; average of experiments) of the same compound?
Its inhibition at 10 µM is 97.2%.

What about the inhibition at 10 µM (CDK14/Cyclin Y; independent experiment 1) of the same compound?
The inhibition at 10 µM was 96%.

What about the inhibition at 10 µM (CDK14/Cyclin Y; independent experiment 2) of the same compound?
Its inhibition at 10 µM is 98.5%.

What about the IC50 (CDK14/Cyclin Y; average (± SEM where n=3), read-out: CDK14/Y IC50) of the same compound?
The IC50 was 29 nM.

What about the IC50 (CDK14/Cyclin Y; independent experiment 1, read-out: CDK14/Y IC50) of the same compound?
The IC50 was 28 nM.

What about the IC50 (CDK14/Cyclin Y; independent experiment 2, read-out: CDK14/Y IC50) of the same compound?
Its IC50 is 29 nM.

What about the IC50 (CDK14/Cyclin Y; live HEK-293, 2 h, mean ± S.E.M. (n=3) or mean (n=2), read-out: IC50 for CDK/cyclin complexes, CDK14/Y) of the same compound?
Its IC50 is 29 nM.

What about the inhibition at 10 µM (CDK18/Cyclin Y; average of experiments) of the same compound?
Its inhibition at 10 µM is 101%.

And the inhibition at 10 µM (CDK18/Cyclin Y; independent experiment 1)?
Its inhibition at 10 µM is 98.4%.

And the inhibition at 10 µM (CDK18/Cyclin Y; independent experiment 2)?
The inhibition at 10 µM was 103%.

And the IC50 (CDK18/Cyclin Y; average (± SEM where n=3))?
The IC50 was 82 nM.

What about the IC50 (CDK18/Cyclin Y; independent experiment 1) of the same compound?
The IC50 was 99 nM.

And the IC50 (CDK18/Cyclin Y; independent experiment 2)?
Its IC50 is 65 nM.
